Measurements: US4057684A, “Alkyl amino-glucopyranoside derivative and process for producing the same” (priority 1975, dated 1977)

Key:
[1] = test system: Nakahara-Fukuoka sarcoma (NFS); assay: antitumor effect against Nakahara-Fukuoka sarcoma (NFS) implanted in mice; format: in vivo, mouse (ICR)
Excerpt: (§1) Results of pharmacological studies for amino-glucopyranoside [I] according to the invention are described below. The test compounds which were used included methyl N-carbamyl-N'-(2-chloroethyl)-N'-nitroso-2-amino-2-deoxy-α-D-glucopyranoside and methyl N-carbamyl-N'-(2-chloroethyl)-N'-nitroso-6-amino-6-deoxy-α-D-glucopyranoside (hereinafter abbreviated to 2MCαG and 6MCαG, respectively). The control compounds which were employed were 1-(2-chloroethyl)-3-cyclohexyl-1-nitrosoourea (hereinafter abbreviated to CCNU), which had been widely applied as a control compound in such a pharmacological test of the streptozotocin derivatives, and GCNU referred to previously. The tumor systems which were used were leukemia L-1210, Nakahara-Fukuoka sarcoma, adenocarcinoma-755, ascites sarcoma 180 and Ehrlich ascites carcinoma (hereinafter abbreviated to L-1210, NFS, Ca-755, S-180A and EAC, respectively), and the antitumor activities were determined by a procedure of the National Cancer Center, Tokyo (A. Hoshi et al.: Farumashia 9, 464(1973)). The test animals which were used were ICR and BDF1 mice.
(§2) ^a Treatment was initiated 24 hr after implantation of tumor (day 1):
(§3) D1~5 = qd, day 1~5; D1 = day 1 only.
(§4) ^b T/C is expressed as the tumor weight ratio in solid tumors or tota
(§5) packed cell volume ratio in ascites tumors of treated/control.

[2] = test system: adenocarcinoma-755 (Ca-755); assay: antitumor effect against adenocarcinoma-755 (Ca-755) implanted in mice; format: in vivo, mouse (BDF1)
Excerpt: as §1, §2, §3, §4, §5

[3] = test system: ascites sarcoma 180 (S-180A); assay: antitumor effect against ascites sarcoma 180 (S-180A) implanted in mice; format: in vivo, mouse (ICR)
Excerpt: as §1, §2, §3, §4, §5

[4] = test system: Ehrlich ascites carcinoma (EAC); assay: antitumor effect against Ehrlich ascites carcinoma (EAC) implanted in mice; format: in vivo, mouse (ICR)
Excerpt: as §1, §2, §3, §4, §5

[5] = test system: leukemia L-1210; assay: increase in life span and survival of leukemia L-1210 implanted mice; format: in vivo, mouse (BDF1)
Excerpt: as §1, §2, §3
^d % increase in life span (mean survival time) over controls.
^e 60 days survivors/total in treated group.

[6] = peripheral white blood cell counts (bone marrow toxicity) and survival in normal male ICR mice; format: in vivo, mouse (ICR)
Method: Such peripheral white blood cell counts were performed as follows: Normal male ICR mice were used in groups of tens and the test compounds for treatment were made into their respective solutions. 2MCαG and 6MCαG were dissolved in physiological saline solutions, while CCNU and GCNU were suspended in 0.5% CMC aqueous solution and 50% PEG aqueous solution, respectively. A single administration at volume of 1 ml per 100 g body weight of animal (0.1 ml/10 g) was given intraperitoneally, and the peripheral white blood cell counts were performed 3, 8 and 15 days after administration of the test compounds.

[7] = blood sugar level / diabetogenic activity; format: in vivo, rat (male Wister); settings: rat, in vivo
[8] = test system: bacteria; assay: antibacterial activity, broth dilution method
[9] = test system: solid as well as ascites tumor systems; assay: antitumor activity in the tumor systems (overall); format: in vivo, mouse; settings: for antitumor activity compared with its α-anomer: vs α-anomer; for antitumor activity compared with the compounds of examples 1 and 4: mouse, in vivo
Excerpt: as §1

[10] = 12.5 mg/kg/day ip D1~5, ICR mice
[11] = 3.2 mg/kg/day ip, 5 successive days
[12] = 8.5 mg/kg/day ip, 5 successive days, BDF1 mice
[13] = 12.0 mg/kg/day ip D1~5, ICR mice
[14] = 20.0 mg/kg/day ip D1~5, ICR mice
[15] = 10.0 mg/kg/day ip D1~5, BDF1 mice
[16] = 25.0 mg/kg/day ip D1~5, BDF1 mice

CO[C@@H]1O[C@H](CO)[C@@H](O)[C@H](O)[C@H]1NC(=O)N(CCCl)N=O [Example 4, methyl N-carbamyl-N'-(2-chloroethyl)-N'-nitroso-2-amino-2-deoxy-β-D-glucopyranoside]
Activity [1, 10]: ++ or +++ | Activity ([2]; 12.5 mg/kg/day ip D1~5, BDF1 mice): ++ or +++ | accumulation of ascites tumor cells [3, 11]: ascites cells accumulation was not detectable | Activity [3, 10]: ++ or +++ | accumulation of ascites tumor cells [4, 11]: ascites cells accumulation was not detectable | Activity [4, 10]: ++ or +++ | ILS ([5]; 3.2 mg/kg/day ip D1~5): 480% | ILS ([5]; 6.3 mg/kg/day po D1~5): 385% | 60-days survivors ([5]; single ip, 8~25 mg/kg): all six test animals surviving after 60-days | ILS ([5]; single ip, 8~25 mg/kg): 717% | bone marrow toxicity, less than the α-anomer ([6]; LD10 dosage): 5~20% | peripheral white blood cell count, higher than that of the α-anomer ([6]; LD10 dosage, 3, 8 and 15 days): 5~20% | diabetogenic activity [7]: not found to be either diabetogenic | antibacterial activity [8]: not found to be either diabetogenic or exhibited any antibacterial activities | antitumor activity compared with its α-anomer [9]: 110~120%

CO[C@@H]1O[C@H](CNC(=O)N(CCCl)N=O)[C@@H](O)[C@H](O)[C@H]1O [Example 12, methyl N-carbamyl-N'-(2-chloroethyl)-N'-nitroso-6-amino-6-deoxy-β-D-glucopyranoside]
reduced bone marrow toxicity compared with its α-anomer ([6]; vs α-anomer): 110~120% | diabetogenic activity [7]: neither diabetogenic nor antibacterial activities | antibacterial activity [8]: neither diabetogenic nor antibacterial activities | antitumor activity compared with its α-anomer [9]: 110~120%

CCCCO[C@@H]1O[C@H](CO)[C@@H](O)[C@H](O)[C@H]1NC(=O)N(CCCl)N=O [Example 9 3-anomer, n-butyl N-carbamyl-N'-(2-chloroethyl)-N'-nitroso-2-amino-2-deoxy-3-D-glucopyranoside]
bone marrow toxicity compared with the compounds of examples 1 and 4 ([6]; mouse, in vivo): same low levels | diabetogenic activity [7]: neither diabetogenic nor antibacterial activities | antibacterial activity [8]: neither diabetogenic nor antibacterial activities | antitumor activity compared with the compounds of examples 1 and 4 [9]: same level of anitumor activity

CO[C@H]1O[C@H](CNC(=O)N(CCCl)N=O)[C@@H](O)[C@H](O)[C@H]1NC(=O)N(CCCl)N=O [Example 3]
Activity [1, 12]: ++ or +++ | Activity [2, 12]: ++ or +++ | Activity [3, 12]: ++ or +++ | Activity [4, 12]: ++ or +++ | ILS ([5]; 2.2 mg/kg/day ip, 5 successive days): 400% | ILS ([5]; 4.5 mg/kg/day orally): 370% | 60-days survivors ([5]; single ip, 7~15 mg/kg): all six animals tested survived | ILS ([5]; single ip, 7~15 mg/kg): 717% | bone marrow toxicity compared with CCNU ([6]; mouse, in vivo): less than that of CCNU | bone marrow toxicity compared with GCNU ([6]; mouse, in vivo): comparable to GCNU | diabetogenic activity [7]: nondiabetogenic | antibacterial activity [8]: void of antibacterial activities

CO[C@@H]1O[C@H](CNC(=O)N(CCCl)N=O)[C@@H](O)[C@H](O)[C@H]1NC(=O)N(CCCl)N=O [Example 7, methyl di-N,N'-[N-(2-chloroethyl)-N-nitroso-carbamyl]-2,6-di-amino-2,6-di-deoxy-3-D-glucopyranoside]
bone marrow toxicity compared with its α-anomer ([6]; vs compound of example 3): reduced bone marrow toxicities | diabetogenic activity [7]: neither diabetogenic nor antibacterial activities | antibacterial activity [8]: neither diabetogenic nor antibacterial activities | antitumor activity compared with its α-anomer [9]: 5~20%

CCCCO[C@H]1O[C@H](CO)[C@@H](O)[C@H](O)[C@H]1NC(=O)N(CCCl)N=O [Example 9 α-anomer, n-butyl N-carbamyl-N'-(2-chloroethyl)-N'-nitroso-2-amino-2-deoxy-α-D-glucopyranoside]
bone marrow toxicity compared with the compounds of examples 1 and 4 ([6]; mouse, in vivo): same low levels | diabetogenic activity [7]: neither diabetogenic nor antibacterial activities | antibacterial activity [8]: neither diabetogenic nor antibacterial activities | antitumor activity compared with the compounds of examples 1 and 4 [9]: same level of anitumor activity

O=NN(CCCl)C(=O)NC1CCCCC1 [CCNU, 1-(2-chloroethyl)-3-cyclohexyl-1-nitrosoourea, reference compound]
Activity [1, 13]: + (70~51% = +) | T/C [1, 13]: 57.5% | Activity [1, 14]: ++ (50~21% = ++) | T/C [1, 14]: 48.3% | Activity [2, 15]: +++ (20~0% = +++) | T/C [2, 15]: 15.0% | Activity [2, 16]: Toxic | T/C [2, 16]: 1.1% | died/used [2, 16]: 6/6 | Death rate (death/used) ([6]; 20 mg/kg ip single): 0/10 | Average count of WBC ([6]; 20 mg/kg ip single, day 3): 38.7±2.9 x 10^2 WBC/mm^3 | Average count of WBC ([6]; 20 mg/kg ip single, day 8): 81.8±5.0 x 10^2 WBC/mm^3 | Average count of WBC ([6]; 20 mg/kg ip single, day 15): 100.4±9.8 x 10^2 WBC/mm^3 | Death rate (death/used) ([6]; 40 mg/kg ip single): 1/10 | Average count of WBC ([6]; 40 mg/kg ip single, day 3): 31.5±1.7 x 10^2 WBC/mm^3 | Average count of WBC ([6]; 40 mg/kg ip single, day 8): 59.0±6.0 x 10^2 WBC/mm^3 | Average count of WBC ([6]; 40 mg/kg ip single, day 15): 77.9±9.0 x 10^2 WBC/mm^3 | Death rate (death/used) ([6]; 60 mg/kg ip single): 9/10 | Average count of WBC ([6]; 60 mg/kg ip single, day 3): 27.9±3.7 x 10^2 WBC/mm^3 | Average count of WBC ([6]; 60 mg/kg ip single, day 8): 60.0 x 10^2 WBC/mm^3 | Average count of WBC ([6]; 60 mg/kg ip single, day 15): 36.0 x 10^2 WBC/mm^3 | Death rate (death/used) ([6]; 80 mg/kg ip single): 10/10 | Average count of WBC ([6]; 80 mg/kg ip single, day 3): 20.4±2.5 x 10^2 WBC/mm^3
